Consider two compounds from patent US7291630B2, “Azaindoles as inhibitors of c-Jun N-terminal kinases” (Eisai Co., Ltd., priority 2002, dated 2007).

For this experiment, the target named is JNK3 kinase (Homo sapiens, UniProt P53779). The experiment in a line: JNK3 SPA assay (phosphorylation of GST-c-Jun). The class given is biochemical. The settings on record: 3.33 μM ATP, GST-c-Jun substrate, 30 minutes at room temperature. As for the experimental part:
JNK1, JNK2, JNK3—SPA Assay
A typical assay for testing the activity of compounds to inhibit JNK1, JNK2 and JNK3 enzymes is as follows: • 1. Compound is dissolved in DMSO to a convenient concentration and this is diluted in 10% DMSO to a five times concentrate of the desired starting concentration (frequently 1:100). • 2. 10 μl of 500 mM EDTA is added to alternative wells of the Opti-plate row, which will receive kinase reaction plus DMSO. This creates the negative control. • 3. For the JNK2 and JNK3 assay, compounds are prepared in six 2-fold dilutions with water and each concentration is tested in duplicate. For the JNK1 assay compounds are prepared in four 5-fold dilutions with water which are tested in triplicate. Controls are treated identically. • 4. 20 μl per well of each compound concentration is transferred to an Opti-plate, in duplicate. • 5. 30 μl (JNK2/3 SPA) or 50 μl (JNK1 SPA) of substrate solution (25 mM HEPES pH 7.5, 10 mM magnesium acetate with 3.33 μM ATP (JNK2/3) or 2 μM ATP (JNK1), approximately 7.5 kBq [γ-33P] ATP, GST-c-Jun, in water) is added to each well. • 6. 50 μl (JNK2/3 SPA) or 30 μl (JNK1 SPA) of kinase solution (JNK in 25 mM HEPES pH 7.5, 10 mM Mg Acetate) is added to each well.
• 7. […] Plates are sealed and incubated for 30 minutes at room temperature, centrifuged for 10 minutes at 2500 g and counted. • 10. […]

Bounds are passed on as bounds.

Sequence of JNK3 kinase (P53779 whole entry): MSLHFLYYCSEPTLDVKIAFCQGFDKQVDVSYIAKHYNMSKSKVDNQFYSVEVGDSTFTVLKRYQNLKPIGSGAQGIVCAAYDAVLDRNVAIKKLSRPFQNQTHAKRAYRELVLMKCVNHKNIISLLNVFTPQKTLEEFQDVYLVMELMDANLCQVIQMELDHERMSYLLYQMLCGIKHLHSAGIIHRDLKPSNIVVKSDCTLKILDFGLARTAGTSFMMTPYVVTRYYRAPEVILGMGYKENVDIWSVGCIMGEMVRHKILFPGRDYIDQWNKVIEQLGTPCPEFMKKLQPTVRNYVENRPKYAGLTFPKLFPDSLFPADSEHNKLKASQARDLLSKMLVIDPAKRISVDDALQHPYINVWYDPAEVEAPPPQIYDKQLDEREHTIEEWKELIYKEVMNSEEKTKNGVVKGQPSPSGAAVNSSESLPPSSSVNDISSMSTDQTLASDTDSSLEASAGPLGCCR

Broadly, the IC50 is the concentration that gives 50% inhibition. Compound `CN(C)c1ccc(-c2cnc3[nH]ccc3c2)cc1` [Compound 1] returned an IC50 of 1.2 µM.
For the compound `c1csc(-c2cnc3[nH]ccc3c2)c1` [Compound 2], the IC50 is under 0.5 µM.
